{
  "source": "BindingDB's records for doi:10.1021/jm060732n",
  "about": "(Mcgill University, 2006)",
  "data": [
    {"assay": "Inhibition of Enterococcus faecium AAC(6')Ii", "units": {"Ki": "nM"}, "values": [
      {"smiles": "CC(C)(COP(=O)(O)OP(=O)(O)OC[C@H]1O[C@@H](n2cnc3c(N)ncnc32)[C@H](O)[C@@H]1OP(=O)(O)O)[C@@H](O)C(=O)NCCC(=O)NCCSCC(=O)NC[C@H]1O[C@H](O[C@H]2[C@H](O)[C@@H](O[C@H]3O[C@H](CO)[C@@H](O)[C@H](N)[C@H]3O)[C@H](N)C[C@@H]2N)[C@H](O)[C@@H](O)[C@@H]1O", "Ki": 110},
      {"smiles": "CC(C)(COP(=O)(O)OP(=O)(O)OC[C@H]1O[C@@H](n2cnc3c(N)ncnc32)[C@H](O)[C@@H]1OP(=O)(O)O)[C@@H](O)C(=O)NCCC(=O)NCCSCCCCC(=O)NC[C@H]1O[C@H](O[C@H]2[C@H](O)[C@@H](O)[C@H](N)C[C@@H]2N)[C@H](N)[C@@H](O)[C@@H]1O", "note": "[[(2R,3S,4R,5R)-5-(6-amino-9H-purin-9-yl)-4-hydroxy-3-(phosphonatooxy)oxolan-2-yl]methyl {[(3R)-3-({2-[(2-{[4-({[(2R,3S,4R,5R,6R)-5-amino-6-{[(1R,2R,3S,4R,6S)-4,6-diamino-2,3-dihydroxycyclohexyl]oxy}-3,4-dihydroxyoxan-2-yl]methyl}carbamoyl)butyl]sulfanyl}ethyl)carbamoyl]ethyl}carbamoyl)-3-hydroxy-2,2-dimethylpropylphosphonato]oxy}phosphonate]", "Ki": 8000},
      {"smiles": "CC(C)(COP(=O)(O)OP(=O)(O)OC[C@H]1O[C@@H](n2cnc3c(N)ncnc32)[C@H](O)[C@@H]1OP(=O)(O)O)[C@@H](O)C(=O)NCCC(=O)NCCSCC(=O)NC[C@H]1O[C@H](O[C@H]2[C@H](O)[C@@H](O)[C@H](N)C[C@@H]2N)[C@H](N)[C@@H](O)[C@@H]1O", "note": "[[(2R,3S,4R,5R)-5-(6-amino-9H-purin-9-yl)-4-hydroxy-3-(phosphonatooxy)oxolan-2-yl]methyl {[(3R)-3-({2-[(2-{[({[(2R,3S,4R,5R,6R)-5-amino-6-{[(1R,2R,3S,4R,6S)-4,6-diamino-2,3-dihydroxycyclohexyl]oxy}-3,4-dihydroxyoxan-2-yl]methyl}carbamoyl)methyl]sulfanyl}ethyl)carbamoyl]ethyl}carbamoyl)-3-hydroxy-2,2-dimethylpropylphosphonato]oxy}phosphonate]", "Ki": 76},
      {"smiles": "CC(C)(COP(=O)(O)OP(=O)(O)OC[C@H]1O[C@@H](n2cnc3c(N)ncnc32)[C@H](O)[C@@H]1OP(=O)(O)O)[C@@H](O)C(=O)NCCC(=O)NCCSCCC(=O)NC[C@H]1O[C@H](O[C@H]2[C@H](O)[C@@H](O)[C@H](N)C[C@@H]2N)[C@H](N)[C@@H](O)[C@@H]1O", "note": "[truncated aminoglycoside-coenzyme A bisubstrate analogue 1b]", "Ki": 43},
      {"smiles": "CC(C)(COP(=O)(O)OP(=O)(O)OC[C@H]1O[C@@H](n2cnc3c(N)ncnc32)[C@H](O)[C@@H]1OP(=O)(O)O)[C@@H](O)C(=O)NCCC(=O)NCCSCCCC(=O)NC[C@H]1O[C@H](O[C@H]2[C@H](O)[C@@H](O)[C@H](N)C[C@@H]2N)[C@H](N)[C@@H](O)[C@@H]1O", "note": "[truncated aminoglycoside-coenzyme A bisubstrate analogue 1c]", "Ki": 161},
      {"smiles": "CC(C)(COP(=O)(O)OP(=O)(O)OC[C@H]1O[C@@H](n2cnc3c(N)ncnc32)[C@H](O)[C@@H]1OP(=O)(O)O)[C@@H](O)C(=O)NCCC(=O)NCCSCC(=O)NC[C@H]1O[C@H](O[C@H]2[C@H](O)[C@@H](O[C@H]3O[C@H](CO)[C@@H](O)[C@H](O)[C@H]3O[C@@H]3O[C@H](CO)[C@@H](O)[C@H]3O)[C@H](N)C[C@@H]2N)[C@H](N)[C@@H](O)[C@@H]1O", "note": "[truncated aminoglycoside-coenzyme A bisubstrate analogue 3]", "Ki": 119}
    ]}
  ]
}
